Experimental findings from US9839642B2, “Beta-tetrazolyl-propionic acids as metallo-beta-lactamase inhibitors” (priority 2014, dated 2017) are described below.

Where only a bound is given, the exact number is not on record here.

For one experiment, the target named is NDM-1 (Klebsiella pneumoniae, UniProt C7C422). In words: Enzyme activity: determination of IC50, fluorescence assay with CCF2-FA substrate. It is filed as biochemical. The settings on record: NDM-1 enzyme 1 pM, CCF2-FA 1.25 μM, 2 hours at 25° C.; read-out: NDM1 IC50. An outline of the steps: (§1)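 Final enzyme levels differed by target: 1 pM NDM-1, 2 pM IMP-1, 30 pM VIM-1. Each was incubated 2 hours at 25° C with test compound and 1.25 μM CCF2-FA, and 460 nm fluorescence (405 nm excitation) was fitted by 4-parameter curve to obtain IC50.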

For the next experiment, the target named is VIM-1 (Pseudomonas aeruginosa, UniProt A0A0F7KYQ8). The description is as above. The conditions noted are these: VIM-1 enzyme 30 pM, CCF2-FA 1.25 μM, 2 hours at 25° C.; read-out: VIM1 IC50. It is filed as biochemical. An outline of the steps: as §1
The target of a further experiment is IMP-1 (Serratia marcescens, UniProt P52699). Described as above. It is filed as biochemical. The settings on record: IMP-1 enzyme 2 pM, CCF2-FA 1.25 μM, 2 hours at 25° C.; read-out: IMP1 IC50. The method in brief:
as §1

The subject of experiment [1] is Escherichia coli expressing NDM-1 (CLB30016). Put plainly: Antibiotic potentiation activity: synergistic concentration (MITC95) with imipenem, growth by OD600. The conditions noted are these: E. coli CLB30016 (NDM-1), 95% inhibition of growth. The format is cell-based. An outline of the steps: (§2)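 Colonies from overnight agar plates (35 °C) were suspended in saline and diluted 1:100 into 1.1× CAMHB. Inhibitor (final 200 μM to 0.195 μM) was combined with imipenem at 1 or 4 μg/ml, incubated 22–24 h at 35 °C, and absorbance read; MITC95 is the lowest inhibitor concentration giving 95% growth inhibition.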

Experiment [2] concerns Serratia marcescens expressing IMP-1 (CL5741). Described as above. It is filed as cell-based. The conditions noted are these: S. marcescens CL5741 (IMP-1), 95% inhibition of growth. An outline of the steps: as §2
In experiment [3] the test system is Klebsiella pneumoniae expressing VIM-1 (IHMA599644). The description is as above. It is filed as cell-based. The settings on record: K. pneumoniae IHMA599644 (VIM-1), 95% inhibition of growth. The method in brief: as §2

IMP-1, sequence (P52699 19-246, looked up, species assumed): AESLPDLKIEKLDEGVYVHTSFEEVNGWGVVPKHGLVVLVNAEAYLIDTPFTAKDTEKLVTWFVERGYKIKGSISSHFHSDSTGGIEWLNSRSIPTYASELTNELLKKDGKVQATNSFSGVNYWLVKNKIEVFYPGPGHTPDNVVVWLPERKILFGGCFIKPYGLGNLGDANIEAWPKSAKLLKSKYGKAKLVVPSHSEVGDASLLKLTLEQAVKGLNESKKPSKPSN
NDM-1, sequence (C7C422 29-270, looked up, species assumed): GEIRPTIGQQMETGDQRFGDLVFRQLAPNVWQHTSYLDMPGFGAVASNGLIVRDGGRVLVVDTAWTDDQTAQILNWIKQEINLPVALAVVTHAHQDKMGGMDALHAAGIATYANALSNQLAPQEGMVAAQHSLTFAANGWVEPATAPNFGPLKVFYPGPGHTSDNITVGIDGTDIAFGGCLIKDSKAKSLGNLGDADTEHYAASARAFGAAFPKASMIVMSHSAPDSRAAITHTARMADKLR

For the compound `CNC(=O)C1CCCN(c2ccc(C[C@H](c3nnn[nH]3)[C@H](CC(C)C)C(=O)O)cn2)C1` (stereo partly drawn) [Example 311, (2S)-4-methyl-2-[(1S)-2-{6-[3-(methylcarbamoyl)piperidin-1-yl]pyridin-3-yl}-1-(1H-tetrazol-5-yl)ethyl] pentanoic acid], the IC50 (usually the concentration needed to halve the response being measured) on NDM-1 turned out to be 87 nM; on VIM-1, 26 nM; at IMP-1, 150 nM. In experiment [1], the “NDM1 EC30016 MITC95” value was determined as 6.2 µM. Moreover, the “IMP1 SM5741 MITC95” value in experiment [2] is 9.4 µM. Moreover, the “VIM1 KP599644 MITC95” value in experiment [3] amounted to 100 µM.

As to `CC(C)C[C@H](C(=O)O)[C@H](Cc1ccc(N2CCC(CNS(C)(=O)=O)CC2)nc1)c1nnn[nH]1` [Example 312, (2S)-4-methyl-2-[(1S)-2-[6-(4-{[(methylsulfonyl)amino]methyl}piperidin-1-yl)pyridin-3-yl]-1-(1H-tetrazol-5-yl)ethyl]pentanoic acid], the IC50 on NDM-1 amounted to 42 nM; on VIM-1, 48 nM; at IMP-1, 250 nM. In experiment [1], the “NDM1 EC30016 MITC95” value amounted to 9.4 µM. Further, in experiment [2], the “IMP1 SM5741 MITC95” value came to 31 µM. Further, the “VIM1 KP599644 MITC95” value in experiment [3] turned out to be 150 µM.

In the case of `CC(C)C[C@H](C(=O)O)[C@H](Cc1ccc(N2CCC(O)C2)nc1)c1nnn[nH]1` (stereo partly drawn) [Example 313, (2S)-2-[(1S)-2-[6-(3-hydroxypyrrolidin-1-yl)pyridin-3-yl]-1-(1H-tetrazol-5-yl)ethyl]-4-methylpentanoic acid], the IC50 was 75 nM on NDM-1, 3.8 nM on VIM-1 and 360 nM at IMP-1. Besides, in experiment [1], the “NDM1 EC30016 MITC95” value amounted to 1.6 µM. Also, in experiment [2], the “IMP1 SM5741 MITC95” value is 12.5 µM. In addition, the “VIM1 KP599644 MITC95” value in experiment [3] came to 12.5 µM.

Turning to `CC(C)C[C@H](C(=O)O)[C@H](Cc1ccc(N2CCC(CO)CC2)nc1)c1nnn[nH]1` [Example 314, (2S)-2-[(1S)-2-{6-[4-(hydroxymethyl)piperidin-1-yl]pyridin-3-yl}-1-(1H-tetrazol-5-yl)ethyl]-4-methylpentanoic acid], the IC50 is 49 nM on NDM-1, 16 nM at VIM-1 and 190 nM at IMP-1. Also, the “NDM1 EC30016 MITC95” value in experiment [1] turned out to be 6.2 µM. Moreover, the “IMP1 SM5741 MITC95” value in experiment [2] amounted to 12.5 µM. In addition, the “VIM1 KP599644 MITC95” value in experiment [3] was determined as 75 µM.

On to `CC(C)C[C@H](C(=O)O)[C@H](Cc1ccc(N2CCCC2CO)nc1)c1nnn[nH]1` (stereo partly drawn) [Example 315, (2S)-2-[(1S)-2-{6-[2-(hydroxymethyl)pyrrolidin-1-yl]pyridin-3-yl}-1-(1H-tetrazol-5-yl)ethyl]-4-methylpentanoic acid], for which the IC50 at NDM-1 came out at 67 nM; at VIM-1, 6 nM; at IMP-1 it was 61 nM. Moreover, in experiment [1], the “NDM1 EC30016 MITC95” value turned out to be 3.1 µM. Besides, the “IMP1 SM5741 MITC95” value in experiment [2] was determined as 6.2 µM. Also, the “VIM1 KP599644 MITC95” value in experiment [3] turned out to be 38 µM.

In the case of `CC(C)C[C@H](C(=O)O)[C@H](Cc1ccc(N[C@@H]2CC[C@H](N)C2)nc1)c1nnn[nH]1` [Example 316, (2S)-2-[(1S)-2-(6-{[(1R,3S)-3-aminocyclopentyl]amino}pyridin-3-yl)-1-(1H-tetrazol-5-yl)ethyl]-4-methylpentanoic acid], the figures for the IC50 at NDM-1, at VIM-1 and at IMP-1 were 450 nM, 22 nM and 1200 nM, respectively. Also, the “NDM1 EC30016 MITC95” value in experiment [1] stood at 1.6 µM. Besides, the “IMP1 SM5741 MITC95” value in experiment [2] worked out at 12.5 µM. Moreover, the “VIM1 KP599644 MITC95” value in experiment [3] is 12.5 µM.

With `CC(C)C[C@H](C(=O)O)[C@H](Cc1ccc(N[C@H]2CC[C@H](N)C2)nc1)c1nnn[nH]1` [Example 317, (2S)-2-[(1S)-2-(6-{[(1S,3S)-3-aminocyclopentyl]amino}pyridin-3-yl)-1-(1H-tetrazol-5-yl)ethyl]-4-methylpentanoic acid], the IC50 at NDM-1 came to 350 nM; on VIM-1, 14 nM; at IMP-1, 1600 nM. The “NDM1 EC30016 MITC95” value in experiment [1] was found to be 1.6 µM. Besides, the “IMP1 SM5741 MITC95” value in experiment [2] was 12.5 µM. The “VIM1 KP599644 MITC95” value in experiment [3] came to 18.8 µM.

Take `CC(C)C[C@H](C(=O)O)[C@H](Cc1ccc(NCCC(C)N)nc1)c1nnn[nH]1` (stereo partly drawn) [Example 318, (2S)-2-[(1S)-2-{6-[(3-aminobutyl)amino]pyridin-3-yl}-1-(1H-tetrazol-5-yl)ethyl]-4-methylpentanoic acid]: the values for the IC50 on NDM-1, on VIM-1 and on IMP-1 were 370 nM, 11 nM and 2000 nM, respectively. In experiment [1], the “NDM1 EC30016 MITC95” value turned out to be 1.6 µM. Further, the “IMP1 SM5741 MITC95” value in experiment [2] worked out at 18.8 µM. Further, the “VIM1 KP599644 MITC95” value in experiment [3] turned out to be 12.5 µM.

As to `CC(C)C[C@H](C(=O)O)[C@H](Cc1ccc(NC2CNCc3ccccc32)nc1)c1nnn[nH]1` (stereo partly drawn) [Example 319, (2S)-4-methyl-2-[(1S)-2-[6-(1,2,3,4-tetrahydroisoquinolin-4-ylamino)pyridin-3-yl]-1-(1H-tetrazol-5-yl)ethyl]pentanoic acid], the IC50 on NDM-1 stood at 350 nM; on VIM-1 it was 13 nM; at IMP-1, 1000 nM. Also, the “NDM1 EC30016 MITC95” value in experiment [1] came to 12.5 µM. Also, the “IMP1 SM5741 MITC95” value in experiment [2] worked out at 18.8 µM. Further, in experiment [3], the “VIM1 KP599644 MITC95” value is 25 µM.

Consider `CC(C)C[C@H](C(=O)O)[C@H](Cc1ccc(NCCC(N)C(F)(F)F)nc1)c1nnn[nH]1` (stereo partly drawn) [Example 320, (2S)-2-[(1S)-2-{6-[(3-amino-4,4,4-trifluorobutyl)amino]pyridin-3-yl}-1-(1H-tetrazol-5-yl)ethyl]-4-methylpentanoic acid], for which the IC50 amounted to 83 nM on NDM-1, 15 nM at VIM-1 and 320 nM at IMP-1. Further, the “NDM1 EC30016 MITC95” value in experiment [1] was 1.6 µM. Moreover, the “IMP1 SM5741 MITC95” value in experiment [2] stood at 12.5 µM. In addition, the “VIM1 KP599644 MITC95” value in experiment [3] was 50 µM.

`CC(C)C[C@H](C(=O)O)[C@H](Cc1ccc(NC2CCNC2)nc1)c1nnn[nH]1` (stereo partly drawn) [Example 321, (2S)-4-methyl-2-[(1S)-2-[6-(pyrrolidin-3-ylamino)pyridin-3-yl]-1-(1H-tetrazol-5-yl)ethyl]pentanoic acid]: the figures for the IC50 on NDM-1, at VIM-1 and at IMP-1 were 440 nM, 5.1 nM and 1600 nM, respectively. Moreover, in experiment [1], the “NDM1 EC30016 MITC95” value came to 3.1 µM. Moreover, the “IMP1 SM5741 MITC95” value in experiment [2] worked out at 18.8 µM. The “VIM1 KP599644 MITC95” value in experiment [3] worked out at 18.8 µM.

As for `CC(C)C[C@H](C(=O)O)[C@H](Cc1ccc(N2CCCC(C(C)(C)N)C2)nc1)c1nnn[nH]1` (stereo partly drawn) [Example 322, (2S)-2-[(1S)-2-{6-[3-(1-amino-1-methylethyl)piperidin-1-yl]pyridin-3-yl}-1-(1H-tetrazol-5-yl)ethyl]-4-methylpentanoic acid], the IC50 on NDM-1 is 340 nM; at VIM-1 it was 11 nM; at IMP-1 it was 550 nM. Also, the “NDM1 EC30016 MITC95” value in experiment [1] was determined as 18.8 µM. Besides, in experiment [2], the “IMP1 SM5741 MITC95” value is 25 µM. In experiment [3], the “VIM1 KP599644 MITC95” value stood at 50 µM.

For the compound `CC(C)C[C@H](C(=O)O)[C@H](Cc1ccc(NCC2CNCCC2O)nc1)c1nnn[nH]1` (stereo partly drawn) [Example 323, (2S)-2-[(1S)-2-(6-{[(4-hydroxypiperidin-3-yl)methyl]amino}pyridin-3-yl)-1-(1H-tetrazol-5-yl)ethyl]-4-methylpentanoic acid], the IC50 on NDM-1 came to 120 nM; at VIM-1, 17 nM; on IMP-1, 930 nM. For the same compound, the “NDM1 EC30016 MITC95” value in experiment [1] amounted to 1.6 µM. The “IMP1 SM5741 MITC95” value in experiment [2] worked out at 6.2 µM. In addition, the “VIM1 KP599644 MITC95” value in experiment [3] is 18.8 µM.

With `CC(C)C[C@H](C(=O)O)[C@H](Cc1ccc(N2CC(C)(CN)C2)nc1)c1nnn[nH]1` [Example 325, (2S)-2-[(1S)-2-{6-[3-(aminomethyl)-3-methylazetidin-1-yl]pyridin-3-yl}-1-(1H-tetrazol-5-yl)ethyl]-4-methylpentanoic acid], the IC50 came out at 1100 nM at NDM-1, 36 nM at VIM-1 and 4400 nM at IMP-1. For the same compound, in experiment [1], the “NDM1 EC30016 MITC95” value turned out to be 12.5 µM. For the same compound, the “IMP1 SM5741 MITC95” value in experiment [2] stood at 75 µM. Further, the “VIM1 KP599644 MITC95” value in experiment [3] came out at 75 µM.

Take `CC(C)C[C@H](C(=O)O)[C@H](Cc1ccc(N2CC(CCN)C2)nc1)c1nnn[nH]1` [Example 326, (2S)-2-[(1S)-2-{6-[3-(2-aminoethyl)azetidin-1-yl]pyridin-3-yl}-1-(1H-tetrazol-5-yl)ethyl]-4-methylpentanoic acid]: the IC50 on NDM-1 was 6400 nM; on VIM-1, 29 nM; at IMP-1 it was greater than 20000 nM. Further, the “NDM1 EC30016 MITC95” value in experiment [1] stood at 50 µM. For the same compound, the “IMP1 SM5741 MITC95” value in experiment [2] was greater than 200 µM. Moreover, the “VIM1 KP599644 MITC95” value in experiment [3] was 6.2 µM.

For the compound `CC(C)C[C@H](C(=O)O)[C@H](Cc1ccc(N2CC(N)C2)nc1)c1nnn[nH]1` [Example 327, (2S)-2-[(1S)-2-[6-(3-aminoazetidin-1-yl)pyridin-3-yl]-1-(1H-tetrazol-5-yl)ethyl]-4-methylpentanoic acid], the IC50 at NDM-1 was found to be 470 nM; at VIM-1 it was 17 nM; at IMP-1, 2600 nM. Besides, the “NDM1 EC30016 MITC95” value in experiment [1] is 9.4 µM. Also, the “IMP1 SM5741 MITC95” value in experiment [2] was 38 µM. The “VIM1 KP599644 MITC95” value in experiment [3] amounted to 38 µM.
